{"source": "paper PMC8026400", "about": "“Osmium–arene complexes with high potency towards Mycobacterium tuberculosis” (Metallomics: Integrated Biometal Science, 2021)", "key": {"[1]": {"tested_on": "Mtb H37Rv", "test": "MIC against Mtb H37Rv, resazurin microtitre assay", "format": "cell-based, Mycobacterium tuberculosis", "settings": "7-day exposure, Middlebrook 7H9 broth, 0.2% glycerol, 0.05% Tween 80, 10% ADC, three biological repeats"}, "[2]": {"tested_on": "Mtb", "test": "Minimum bactericidal concentration against Mtb (CFU plating)", "format": "cell-based, Mycobacterium tuberculosis", "settings": "for bactericidal character against actively growing Mtb: from correlation of MBC with MIC; for MBC (minimal bactericidal concentration): lowest concentration with no CFUs on 7H10 medium", "protocol": "The minimum bactericidal activity (MBC) was determined by setting up a microtitre plate as performed for the MIC determination. Instead of adding resazurin, each well from the microtitre plate was plated on to solid 7H10 medium and the CFUs were determined after incubation at 37°C. The lowest concentration at which no CFUs were counted was taken as the MBC. The MBCs were carried out with three independent experimental repeats."}, "[3]": {"tested_on": "MRC5 (human foetal lung fibroblast) cells", "test": "Antiproliferative activity against human cell line, SRB assay", "format": "cell-based", "settings": "24 h drug exposure and 72 h recovery in drug-free medium", "protocol": "MRC5 (human foetal lung fibroblast) cell lines were obtained from Public Health England (mycoplasma-free status confirmed at six-monthly intervals by internal and external screening). They were thawed upon receipt and the supernatant removed after centrifugation (1000 rpm, 5 min). Cells were re-suspended in DMEM culture medium (supplemented with 10% v/v FCS, 1% penicillin/streptomycin, and 1% L-glutamine) and grown as adherent monolayers at 310 K in a 5% CO2 humidified atmosphere. Cells were passaged using trypsin/EDTA after reaching ∼90% confluence. Trypsin activity was quenched by addition of excess medium, and the single-cell suspension passaged twice weekly. MRC5 fibroblasts were discarded after five passages.\nBriefly, 5 × 10^3 cells (MRC5) were seeded in a 96-well plate using 0.15 mL of culture medium. After 48 h pre-incubation at 310 K, the supernatant was removed and cells exposed to six concentrations (0–100 µM) of osmium complex, for which exact concentrations were determined using ICP-OES (calibration standards for Os freshly prepared in 3.6% v/v nitric acid containing 100 mg L^–1 ascorbic acid and 10 mM thiourea). DMSO was used to aid solubility of Os complexes, but never exceeded 0.5% v/v in the final culture medium. Cells were exposed to Os complexes for 24 h, and then washed with PBS and allowed 72 h recovery time in drug-free medium. Cell viability was determined using the sulforhodamine B (SRB) assay. Cells were fixed using 50 µL of 50% TCA, incubated at 277 K for 1 h, and then stained using SRB dye (0.4% dye in 1% acetic acid). After 30 min, excess dye was removed by acetic acid washing, and then the stain liberated using Tris base (10 mM, pH 10.5). Absorbance was measured using a Thermo Scientific Multiskan FC microplate reader fitted with a 492-nm filter. Data were processed using Microsoft Excel and are reported as percentage survival relative to the untreated control. Sigmoidal dose/response curves were fitted using Origin 2016 to determine IC50. Data were acquired as duplicate of triplicate experiments, with a positive control of cisplatin (CDDP)."}, "[4]": {"tested_on": "Mtb", "settings": "comparison values, no reference given; cited from earlier work"}}, "data": [{"molecule": "CN(C)c1ccc(N=Nc2ccccn2)cc1.Cc1ccc(C(C)C)cc1.F[P-](F)(F)(F)(F)F.[Cl][Os+]", "note": "[Complex 1]", "values": [{"measurement": "MIC", "setting": "[1]", "result": 5, "unit": "µM"}, {"measurement": "bactericidal character against actively growing Mtb", "setting": "[2]", "result": "bactericidal"}, {"measurement": "MBC (minimal bactericidal concentration)", "setting": "[2]", "result": 12.5, "unit": "µM"}, {"measurement": "IC50", "setting": "[3]", "result": "7.1 ± 0.2", "unit": "µM"}]}, {"molecule": "CN(C)c1ccc(N=Nc2ccccn2)cc1.Cc1ccc(C(C)C)cc1.F[P-](F)(F)(F)(F)F.[I][Os+]", "note": "[Complex 2, [Os(AzPy-NMe2)I(p-cymene)]PF6]", "values": [{"measurement": "MIC", "setting": "[1]", "result": 1.25, "unit": "µM"}, {"measurement": "MBC (minimal bactericidal concentration)", "setting": "[2]", "result": 6.25, "unit": "µM"}, {"measurement": "IC50", "setting": "[3]", "result": "0.89 ± 0.01", "unit": "µM"}]}, {"molecule": "CN(C)c1ccc(N=Nc2ccccn2)cc1.F[P-](F)(F)(F)(F)F.[Cl][Os+].c1ccc(-c2ccccc2)cc1", "note": "[Complex 3]", "values": [{"measurement": "MIC", "setting": "[1]", "result": 31.25, "unit": "µM"}, {"measurement": "IC50", "setting": "[3]", "result": "16.9 ± 0.1", "unit": "µM"}]}, {"molecule": "CN(C)c1ccc(N=Nc2ccccn2)cc1.F[P-](F)(F)(F)(F)F.[I][Os+].c1ccc(-c2ccccc2)cc1", "note": "[Complex 4]", "values": [{"measurement": "MIC", "setting": "[1]", "result": 2.5, "unit": "µM"}, {"measurement": "bactericidal character against actively growing Mtb", "setting": "[2]", "result": "bactericidal"}, {"measurement": "MBC (minimal bactericidal concentration)", "setting": "[2]", "result": 6.25, "unit": "µM"}, {"measurement": "IC50", "setting": "[3]", "result": "0.42 ± 0.03", "unit": "µM"}]}, {"molecule": "CN(C)c1ccc(N=Cc2ccccn2)cc1.Cc1ccc(C(C)C)cc1.F[P-](F)(F)(F)(F)F.[Cl][Os+]", "note": "[Complex 5]", "values": [{"measurement": "MIC", "setting": "[1]", "result": 31.25, "unit": "µM"}, {"measurement": "IC50", "setting": "[3]", "result": "7.6 ± 0.9", "unit": "µM"}]}, {"molecule": "CN(C)c1ccc(N=Cc2ccccn2)cc1.Cc1ccc(C(C)C)cc1.F[P-](F)(F)(F)(F)F.[I][Os+]", "note": "[Complex 6]", "values": [{"measurement": "MIC", "setting": "[1]", "result": 7.81, "unit": "µM"}, {"measurement": "IC50", "setting": "[3]", "result": "13 ± 2", "unit": "µM"}]}, {"molecule": "CN(C)c1ccc(N=Nc2ccccn2)cc1.Cc1ccc(C(C)C)cc1.[Cl-].[I][Os+]", "note": "[Complex 7]", "values": [{"measurement": "MIC", "setting": "[1]", "result": 1.25, "unit": "µM"}, {"measurement": "IC50", "setting": "[3]", "result": "0.68 ± 0.03", "unit": "µM"}]}, {"molecule": "CN(C)c1ccc(N=Nc2ccccn2)cc1.Cc1ccc(C(C)C)cc1.[I-].[I][Os+]", "note": "[Complex 8]", "values": [{"measurement": "MIC", "setting": "[1]", "result": 1.25, "unit": "µM"}, {"measurement": "IC50", "setting": "[3]", "result": "0.42 ± 0.01", "unit": "µM"}]}, {"molecule": "Cc1ccc(C(C)C)cc1.F[P-](F)(F)(F)(F)F.[Cl][Os+].c1ccc(N=Nc2ccccn2)cc1", "note": "[Complex 9]", "values": [{"measurement": "MIC", "setting": "[1]", "result": 15.6, "unit": "µM"}, {"measurement": "IC50", "setting": "[3]", "result": "15 ± 2", "unit": "µM"}]}, {"molecule": "Cc1ccc(C(C)C)cc1.F[P-](F)(F)(F)(F)F.[I][Os+].c1ccc(N=Nc2ccccn2)cc1", "note": "[Complex 10]", "values": [{"measurement": "MIC", "setting": "[1]", "result": 5, "unit": "µM"}, {"measurement": "IC50", "setting": "[3]", "result": "0.79 ± 0.06", "unit": "µM"}]}, {"molecule": "Brc1ccc(N=Nc2ccccc2)nc1.Cc1ccc(C(C)C)cc1.F[P-](F)(F)(F)(F)F.[Cl][Os+]", "note": "[Complex 11]", "values": [{"measurement": "MIC", "setting": "[1]", "result": 125, "unit": "µM"}, {"measurement": "IC50", "setting": "[3]", "result": "18 ± 1", "unit": "µM"}]}, {"molecule": "Cc1ccc(C(C)C)cc1.F[P-](F)(F)(F)(F)F.Fc1ccc(N=Nc2ccccc2)nc1.[I][Os+]", "note": "[Complex 12]", "values": [{"measurement": "MIC", "setting": "[1]", "result": 15.6, "unit": "µM"}, {"measurement": "IC50", "setting": "[3]", "result": "9.1 ± 0.6", "unit": "µM"}]}, {"molecule": "F[P-](F)(F)(F)(F)F.Fc1ccc(N=Nc2ccccc2)nc1.[I][Os+].c1ccc(-c2ccccc2)cc1", "note": "[Complex 13]", "values": [{"measurement": "MIC", "setting": "[1]", "result": 62.5, "unit": "µM"}, {"measurement": "IC50", "setting": "[3]", "result": "5.2 ± 0.7", "unit": "µM"}]}, {"molecule": "Cc1ccc(C(C)C)cc1.Clc1ccc(N=Nc2ccccc2)nc1.F[P-](F)(F)(F)(F)F.[I][Os+]", "note": "[Complex 14]", "values": [{"measurement": "MIC", "setting": "[1]", "result": 62.5, "unit": "µM"}, {"measurement": "IC50", "setting": "[3]", "result": "16 ± 2", "unit": "µM"}]}, {"molecule": "F[P-](F)(F)(F)(F)F.Oc1ccc(N=Cc2ccccn2)cc1.[I][Os+].c1ccc(-c2ccccc2)cc1", "note": "[Complex 15]", "values": [{"measurement": "MIC", "setting": "[1]", "result": 5, "unit": "µM"}, {"measurement": "IC50", "setting": "[3]", "result": "13.5 ± 0.9", "unit": "µM"}]}, {"molecule": "CO[C@H]1/C=C/O[C@@]2(C)Oc3c(C)c(O)c4c(O)c(c(/C=N/N5CCN(C)CC5)c(O)c4c3C2=O)NC(=O)/C(C)=C\\C=C\\[C@H](C)[C@H](O)[C@@H](C)[C@@H](O)[C@@H](C)[C@H](OC(C)=O)[C@@H]1C", "note": "[Rifampicin, reference compound]", "values": [{"measurement": "MIC", "setting": "[1]; Mycobacterium tuberculosis, H37RV, 168 h", "result": "0.38 to 0.76", "unit": "µM"}]}, {"molecule": "CC[C@@H](CO)NCCN[C@@H](CC)CO", "note": "[ethambutol]", "values": [{"measurement": "MIC of current clinical TB drugs", "setting": "[4]", "result": "~5", "unit": "µM"}]}, {"molecule": "NNC(=O)c1ccncc1", "note": "[isoniazid]", "values": [{"measurement": "MIC of current clinical TB drugs", "setting": "[4]", "result": "~1", "unit": "µM"}]}, {"molecule": "[H]/N=C(/N)N[C@H]1[C@H](O)[C@@H](O)[C@H](O[C@@H]2O[C@@H](C)[C@](O)(C=O)[C@H]2O[C@@H]2O[C@@H](CO)[C@H](O)[C@@H](O)[C@@H]2NC)[C@@H](N/C(N)=N\\[H])[C@@H]1O", "note": "[streptomycin]", "values": [{"measurement": "MIC of current clinical TB drugs", "setting": "[4]", "result": "~9", "unit": "µM"}]}, {"molecule": "capreomycin", "values": [{"measurement": "MIC of current clinical TB drugs", "setting": "[4]", "result": "~3", "unit": "µM"}]}]}
